{
  "source": "patent US20240115662A1",
  "about": "“METHODS OF TREATING HYPOGONADOTROPIC HYPOGONADISM AND COGNITION IMPAIRMENT FOLLOWING A TRAUMATIC BRAIN INJURY” (WISCONSIN ALUMNI RESEARCH FOUNDATION, priority 2021, published 2024)",
  "key": {"[1]": {"system": "human embryonic stem cells (hESC)", "experiment": "hESC proliferation, trypan blue assay", "assay_type": "cell-based", "settings": "6 d; E2 (10 nM), P4 (2 μM); compared to untreated control cells", "procedure": "We therefore tested whether P4 was essential for the induction of NPC from hESC. hESC were treated with P4, E2 (which upregulates P4 receptor (PR) expression), or a combination of E2+P4."}, "hESC": {"system": "hESC", "experiment": "hESC differentiation into neuroectoderm / neural precursor cells (nestin immunoblot, rosettes)", "assay_type": "cell-based, human", "experimental": "FIG. 5A. hESC were grown in TESR1 media-Li in the presence of E2 (10 nM), P4 (2 μM) or E2 (10 nM)+P4 (2 μM) for 6 d and cell proliferation measured using the trypan blue assay. Results are expressed as mean±SEM, n=3 (*p<0.05, **p<0.005 compared to 6 d control). FIG. 5B. Equal amounts of protein from cell lysates of hESC treated for 9 d as described above were analyzed by immunoblot using a monoclonal antibody against nestin (clone 10C2; Chemicon, CA, USA). FIG. 5C. hESC were cultured for 4 days, enzymatically lifted and placed into EB media (containing serum) and rocked gently for an additional 4 days prior to being placed in one of two neural induction medias for an additional 11 days, where P4 was either absence or present. During this transition from EB to rosettes, colony structures treated with P4 also were treated with a Progesterone Receptor (PR) antagonist (RU-486; 20 μM) for 11 days. At 19 day, morphological observation and molecular analysis were performed. (i) Control structure, a minimum of three rosette structures were observed inside the cystic cavity (arrows). (ii) hESC structure in the absence of P4 (no rosettes) (iii) PR antagonist treated rosettes (no rosettes; RU-486, 20 μM). FIG. 5D. Equal amounts of protein from cell lysates of above structures were analyzed by immunoblot for nestin.\nThese structures are predominantly composed of NPCs (NSCs) akin to those that form the neural tube and can be further differentiated into various neural lineages. To understand which hormonal signals regulate the specification of hESC into NSCs, we closely examined the composition of the medias and supplements that had been developed by trial and error for the maintenance of hESC, and their differentiation first into embryoid bodies (EBs) and then into NPC. We identified P4 in the B27 supplement as being necessary and sufficient for the survival and differentiation of late embryonic neurons in vitro (E18 primary hippocampal/cortical/striatal neurons). […]"}, "[2]": {"system": "male Sprague Dawley rats with craniectomy or controlled cortical impact (CCI) injury", "experiment": "Plasma steroid concentrations after craniectomy (Sham) or CCI injury, hCG with or without RU-486", "assay_type": "in vivo, rat", "experimental": "Male Sprague Dawley (SD) rats (n=58, 5-6-months old) were acquired from Harlan Laboratories Inc. (Madison, WI) and acclimated to the environment over 2 days. Rats were then weighed and handled for no less than 5 min each for 5 consecutive days and daily thereafter while being housed, fed and maintained on a 12-hour reverse light/dark cycle. The Institutional Animal Care and Use Committee (Animal Component of Research Protocol) at the William S. Middleton Veterans Administration Hospital approved the procedures used in this study and the research was conducted in an AAALAC-approved facility. Experimenters were blinded as to the identity of the animals throughout injections, blood collections, and body weight and hormone data analyses.\nAll surgical procedures were carried out under isoflurane gas anesthesia (5% for induction; 1.5-3.0% for maintenance, craniectomy ˜15-30 min duration; craniectomy+CCI injury ˜25-45 min duration). An anesthesia chamber was used for induction and a nose cone was used for maintenance.\nAnesthetized rats were mounted in a Kopf stereotaxic device (Model 900; Tujunga, CA), where the animal's head was held in place by non-traumatic ear bars and a bite bar. Anesthesia was maintained by nose cone while the head was shaved and sterilized with 70% ethanol and Betadine™ (Purdue Products L.P., Stamford, CT) antiseptic solution. Throughout surgery anesthesia levels were monitored closely and were frequently adjusted as need, based on heart rate, respiration rate and oxygen saturation. A homeothermic blanket control unit (Harvard Apparatus, Holliston, MA) was used to monitor body temperature and to prevent hypothermia throughout surgery.\nUnder aseptic conditions, the cranium and its bony landmarks including bregma (β) and lambda (λ) were exposed by making a midline incision along the scalp into the skin and fascia covering the skull. A 6 mm diameter craniectomy was centered on the midline at 2.5 mm anterior to β. The cortical impact was made at 2.5 mm anterior to β over the midline of the medial frontal cortex with an Impact One™ Stereotaxic CCI instrument (Leica, Buffalo Grove, IL), using a 5 mm impactor (bit size), traveling at 2.25 m/s (velocity), extending 3 mm below the cortical surface (impact depth) for 100 ms (dwell time). Sham-injured groups received the same surgical procedures up to and including craniectomy but no CCI injury. After surgery, the rats were placed on a heating pad, monitored closely and upon awakening were tested 30 min later for righting reflex to assess any immediate effects of craniectomy or CCI injury on righting ability, and then returned to their home cages.\nBaseline blood draws were collected from all animals. […] Pregnyl® is a highly purified pyrogen-free preparation obtained from the urine of pregnant females. Each vial contains 10,000 USP units of sterile dried powder with 5 mg monobasic sodium phosphate and 4.4 mg dibasic sodium phosphate that is diluted in solvent containing water, 0.56% sodium chloride and 0.9% benzyl alcohol (www.drugs.com/pro/pregnyl.html).\nRats were anesthetized (between 9:00 a.m.-12:00 noon) and their tails placed in a 200 mL beaker filled with warm water (≤44° C.) for 5 min. The tail was clean with 70% alcohol, the minimal amount of the tail tip snipped with a blade, and/or the wound reopened by removal of the scab for subsequent bleeds, and ˜1 mL of whole blood was collected directly into EDTA tubes at baseline (PID-10) and at PID, 1, 11, 19 and 29. […] Animals were injected with Lactate Ringers solution (5 mL) for fluid resuscitation. At the terminal bleed (day 29), blood also was collected via heart puncture. Collected blood was immediately centrifuged at 4,000 g for 10-20 min and the plasma aliquoted into Eppendorf tubes for storage at −80° C."}},
  "data": [
    {"molecule": "C[C@]12CC[C@@H]3c4ccc(O)cc4CC[C@H]3[C@@H]1CC[C@@H]2O", "note": "[E2, estradiol]", "values": [
      {"measurement": "decrease in rate of hESC proliferation", "setting": "[1]", "result": 16, "unit": "%"}
    ]},
    {"molecule": "11β-[p-(Dimethylamino)phenyl]-17α-(1-propynyl)estra-4,9-dien-17β-ol-3-one [RU-486]", "values": [
      {"measurement": "nestin (immunoblot) in PR-antagonist treated structures", "setting": "hESC; RU-486 20 μM", "result": "absence of nestin"},
      {"measurement": "neuroectodermal rosette formation", "setting": "hESC; RU-486 20 μM for 11 days, in presence of P4", "result": "No rosettes were detected"},
      {"measurement": "plasma P4 concentration", "setting": "[2]; CCI injured animals with RU-486 pretreatment, PID 1", "result": "40.9 ± 10.0", "unit": "ng/mL"},
      {"measurement": "plasma T concentration", "setting": "[2]; CCI injured animals with RU-486 pretreatment, PID 11", "result": "4.5 ± 1.5", "unit": "ng/mL"},
      {"measurement": "plasma T concentration", "setting": "[2]; CCI injured animals with RU-486 pretreatment, PID 19", "result": "3.1 ± 1.1", "unit": "ng/mL"},
      {"measurement": "effect on circulating 11-DOC and corticosterone", "setting": "[2]; CCI injured animals, RU486 pretreatment", "result": "no significant effects"},
      {"measurement": "effect on corticosterone", "setting": "[2]; Sham surgery, saline and hCG-treated animals, RU486 pretreatment (except PID 19 in Sham+hCG)", "result": "prevented Sham surgery-induced decreases in corticosterone through PID 29"},
      {"measurement": "circulating 11-DOC", "setting": "[2]; Sham+hCG rats with RU486 pretreatment (40 mg/kg i.p.), PID 1", "result": "282.4 ± 28.0", "unit": "ng/mL"},
      {"measurement": "plasma P4 concentration", "setting": "[2]; Sham+hCG with RU486 pretreatment, PID 29", "result": "8.5 ± 4.5", "unit": "ng/mL"},
      {"measurement": "effect on 11-DOC", "setting": "[2]; Sham+saline with RU486 pretreatment", "result": "preventing the Sham+saline treatment-induced decrease in 11-DOC through PID29"}
    ]},
    {"molecule": "CC(=O)[C@H]1CC[C@H]2[C@@H]3CCC4=CC(=O)CC[C@]4(C)[C@H]3CC[C@]12C", "note": "[P4, progesterone]", "values": [
      {"measurement": "decrease in rate of hESC proliferation", "setting": "[1]", "result": 29, "unit": "%"},
      {"measurement": "nestin expression (immunoblot)", "setting": "hESC; hESC treated for 9 d, E2 (10 nM), P4 (2 μM)", "result": "increased the neuroectodermal marker nestin"}
    ]}
  ]
}
